Measurements published in patent publication US20250177351A1, “ISOINDOLINE COMPOSITIONS AND METHODS FOR TREATING NEURODEGENERATIVE DISEASE” (Cognition Therapeutics, Inc., priority 2022, published 2025).

Legend:
[1] = system: CSF biomarkers (Aβ42, Aβ40, total tau, phosphorylated tau, NFL and neurogranin); assay: Phase 1b/2a trial: CSF Alzheimer's disease biomarkers by ELISA; type: in vivo, human; details: AD patients, before and after treatment
Method: (§1) COG0102 clinical trial: This trial (ClinicalTrials.gov NCT02907567) was a randomized, double-blind, placebo-controlled clinical trial in mild to moderate Alzheimer's patients (MMSE 18-26) (See FIG. 1 for clinical trial design). The trial was conducted at six sites in Australia. Patients were randomized into placebo (n=5) or CT1812-treated groups: 90 mg (n=4), 280 mg (n=5) or 560 mg (n=5) and treated once daily for 28 days. Clinical chemistry was done at Sydpath (Sydney, AU). Pharmacokinetics were done at CPR Pharma Services (Adelaide, AU). Cerebrospinal fluid samples were taken at screening and day 21-28 of treatment and aliquoted. […] One set of CSF samples was analyzed for Alzheimer's disease biomarkers; protein measurements (Aβ42, Aβ40, total tau, tau phosphorylated at threonine 181 (phosphorylated tau), NFL and neurogranin) were performed using commercially available ELISA assays from Fujirebio according to the manufacturer's instructions (INNOTEST β-AMYLOID(1-42), INNOTEST β-AMYLOID(1-40), INNOTEST hTau Ag, INNOTEST PHOSPHO-TAU(181P), Uman Diagnostics NFL assay). Neurogranin was measured with a sandwich ELISA method using antibodies Ng2 and Ng22 developed at the University of Gotteborg (Kvartsberg et al. 2015). Identical aliquots of CSF, and plasma were analyzed for protein expression changes via LC/MSMS at Caprion (see below).

[2] = system: CSF proteins; assay: Phase 1b/2a trial: CSF protein expression by LC/MSMS; type: in vivo, human
Method: COG0102 clinical trial: This trial (ClinicalTrials.gov NCT02907567) was a randomized, double-blind, placebo-controlled clinical trial in mild to moderate Alzheimer's patients (MMSE 18-26) (See FIG. 1 for clinical trial design). The trial was conducted at six sites in Australia. Patients were randomized into placebo (n=5) or CT1812-treated groups: 90 mg (n=4), 280 mg (n=5) or 560 mg (n=5) and treated once daily for 28 days. Clinical chemistry was done at Sydpath (Sydney, AU). Pharmacokinetics were done at CPR Pharma Services (Adelaide, AU). Cerebrospinal fluid samples were taken at screening and day 21-28 of treatment and aliquoted. Plasma samples were taken at screening or Day 1 (one sample) and day 14-28, then spun down to separate plasma and aliquoted. One set of CSF samples was analyzed for Alzheimer's disease biomarkers; protein measurements (Aβ42, Aβ40, total tau, tau phosphorylated at threonine 181 (phosphorylated tau), NFL and neurogranin) were performed using commercially available ELISA assays from Fujirebio according to the manufacturer's instructions (INNOTEST β-AMYLOID(1-42), INNOTEST β-AMYLOID(1-40), INNOTEST hTau Ag, INNOTEST PHOSPHO-TAU(181P), Uman Diagnostics NFL assay). Neurogranin was measured with a sandwich ELISA method using antibodies Ng2 and Ng22 developed at the University of Gotteborg (Kvartsberg et al. 2015). Identical aliquots of CSF, and plasma were analyzed for protein expression changes via LC/MSMS at Caprion (see below).
LC MSMS biomarker discovery: Matched screening and day 28 plasma and CSF samples were analyzed by LC/MSMS at Caprion Biosciences Inc. Plasma was depleted of high and medium abundance proteins using a commercial immunoaffinity column, IgY14-Supermix (Sigma). CSF was depleted of only 14 high abundance proteins using MARS-14 (Agilent). All samples were digested with trypsin and plasma samples were fractionated by strong cation exchange chromatography (3 fractions). Both CSF and plasma samples were analyzed using a NanoAcquity UPLC coupled to a Q Exactive MS. […] The 12 most intense peaks per survey scan with charge states 2-8 fragmented and scanned with a mass range from 200 to 2000 m/z at a resolution of 17,500. Raw spectrometer data files for each LC-MS run were aligned independently using Elucidator software (Rosetta Biosoftware). The MS/MS spectra were matched to corresponding peptide sequences found in the Uniprot Human protein database (January 2017) using Mascot software, allowing for up to 2 missed cleavages, a peptide tolerance of 20 ppm, and an MS/MS tolerance of 0.05 Da. Outlier detection was performed by determining the average log-intensity of all isotope groups (IG) over injection order for all samples. Samples with an average value greater than 2 standard deviations from the mean were flagged for investigation. Following data transformation and normalization, expression analysis of the identified isotope groups was performed and the statistical significance of each comparison was assessed with a parametric, linear mixed model (LMM) and a non-parametric Wilcoxon ranked test (ranked p-values). Expression analysis was also performed at the peptide and protein levels, which used the same methodology as above, but applied to peptide/protein intensities, derived by rolling-up the corresponding isotope group intensities. Isotope groups not detected in at least half of the samples in either of the two groups being compared were not used for the roll-up.
Heat map analysis: The difference in protein abundance between day 28 and baseline for each sample was normalized for graphical comparison by converting to z-score. First, the mean and standard deviation (SD) of day 28—baseline values were calculated across all paired samples for each protein. Then, for each patient's paired sample fold change, the difference from the mean was determined and divided by the SD to derive the z-score. […]

[3] = target: T1, Sigma-2/PGRMC1 receptor complex (Homo sapiens, UniProt Q5BJF2); assay: Phase 1b/2a trial: pharmacokinetics and estimated brain receptor occupancy; type: in vivo; details: AD patients, 90-560 mg, day 28
T1 construct: from tissue; host or cells: brain of trial patients, in vivo (occupancy estimated from CSF drug concentration, not measured)
T1 sequence (Q5BJF2 whole entry, one chain of several): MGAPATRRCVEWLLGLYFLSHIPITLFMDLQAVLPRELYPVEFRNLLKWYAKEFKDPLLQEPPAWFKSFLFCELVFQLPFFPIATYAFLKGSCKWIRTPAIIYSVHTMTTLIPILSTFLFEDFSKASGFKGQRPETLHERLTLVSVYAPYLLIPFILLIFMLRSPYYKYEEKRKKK
Method: as §1

[4] = Phase 1 MAD study: cognitive testing in healthy elderly cohort; type: in vivo, human; details: 560 mg for 14 days (N = 7)
Method: The Alzheimer's Disease Assessment Scale-Cognition Subscale (ADAS-Cog 13) and a cognitive battery (including the category fluency test, controlled word association test, WMS-R digit span, digit symbol substitution test, and Rey Auditory Verbal Learning Test) were administered to subjects in the elderly cohort at baseline and on Day 14.

[5] = system: CSF proteins; assay: CSF proteomics by tandem-mass tag mass spectrometry (TMT-MS), SPARC trial; type: in vivo, human
From the text: A stringent filter was used to reduce noise. […] Samples were acquired from placebo and the drug and interventional cohort. Using biomarker differential-expression analysis, proteins that were differentially expressed between drug and placebo cohorts were identified (p<0.05).

[6] = AD patients treated at least 6 months, p<0.05

Which results are given for `CC(C)(C)Oc1cc(CCC(C)(C)N2Cc3ccc(S(C)(=O)=O)cc3C2)ccc1O` [CT1812]?
biomarker levels (Aβ, tau, NFL) in CSF [1]: remain unchanged; Synaptotagmin-1 expression in CSF, decrease in CT1812-treated vs. placebo ([2]; AD patients, 28 days): 63%; number of CSF proteins changed differentially vs placebo ([2]; AD patients, 28 days, p<0.05): 30; FC (Treated) AFM ([2]; CSF, 28 days vs screening): 0.94; FC (Treated) ANGPTL2 ([2]; CSF, 28 days vs screening): 0.80; FC (Treated) CNTN1 ([2]; CSF, 28 days vs screening): 0.97; FC (Treated) EFNB1 ([2]; CSF, 28 days vs screening): 0.97; FC (Treated) EPHA4 ([2]; CSF, 28 days vs screening): 0.94; FC (Treated) MBL2 ([2]; CSF, 28 days vs screening): 0.75; FC (Treated) NPPC ([2]; CSF, 28 days vs screening): 0.90; FC (Treated) P4HB ([2]; CSF, 28 days vs screening): 1.10; FC (Treated) RBP4 ([2]; CSF, 28 days vs screening): 0.82; FC (Treated) ROBO1 ([2]; CSF, 28 days vs screening): 0.96; FC (Treated) SEMA3F ([2]; CSF, 28 days vs screening): 1.40; FC (Treated) SERPINA4 ([2]; CSF, 28 days vs screening): 0.88; FC (Treated) SMPDL3B ([2]; CSF, 28 days vs screening): 0.97; FC (Treated) SYT1 ([2]; CSF, 28 days vs screening): 0.78; FC (Treated) TPII ([2]; CSF, 28 days vs screening): 0.90; FC (Treated) YWHAB ([2]; CSF, 28 days vs screening): 0.90; FC (Treated vs. Placebo) AFM ([2]; CSF, 28 days, p-value 0.002, rank p-value 0.003): 0.84; FC (Treated vs. Placebo) SYT1 ([2]; CSF, 28 days, p-value 0.011, rank p-value 0.011): 0.63; FC (Treated vs. Placebo) RBP4 ([2]; CSF, 28 days, p-value 0.018, rank p-value 0.011): 0.81; FC (Treated vs. Placebo) MBL2 ([2]; CSF, 28 days, p-value 0.020, rank p-value 0.006, FC>10 may be artifact): >10; FC (Treated vs. Placebo) TNC ([2]; CSF, 28 days, p-value 0.029, rank p-value 0.011): 0.91; FC (Treated vs. Placebo) EFNB1 ([2]; CSF, 28 days, p-value 0.029, rank p-value 0.034): 0.93; FC (Treated vs. Placebo) EPHA4 ([2]; CSF, 28 days, p-value 0.035, rank p-value 0.076): 0.93; FC (Treated vs. Placebo) MDGA2 ([2]; CSF, 28 days, p-value 0.036, rank p-value 0.106): 0.71; FC (Treated vs. Placebo) YWHAB ([2]; CSF, 28 days, p-value 0.038, rank p-value 0.148): 0.81; FC (Treated vs. Placebo) ROBO1 ([2]; CSF, 28 days, p-value 0.042, rank p-value 0.106): 0.82; FC (Treated vs. Placebo) TPII ([2]; CSF, 28 days, p-value 0.044, rank p-value 0.076): 0.87; FC (Treated vs. Placebo) CD14 ([2]; CSF, 28 days, p-value 0.046, rank p-value 0.034): 1.20; FC (Treated vs. Placebo) SERPINA4 ([2]; CSF, 28 days, p-value 0.047, rank p-value 0.020): 0.79; FC (Treated vs. Placebo) CNTN1 ([2]; CSF, 28 days, p-value 0.048, rank p-value 0.076): 0.81; FC (Treated vs. Placebo) ANGPTL2 ([2]; CSF, 28 days, p-value 0.050, rank p-value 0.148): 0.69; FC (Treated vs. Placebo) NPPC ([2]; CSF, 28 days, p-value 0.060, rank p-value 0.020): 0.91; increase of plasma concentration with dose [3]: approximately dose proportionally; COWAT (Trial 2), Mean (SD) ([4]; Day 14, Day 0: 9.6 (4.2)): 10.6 (5.1); COWAT (Trial 1), Mean (SD) ([4]; Day 14, Day 0: 11.3 (5.7)): 12.6 (4.5); COWAT (Trial 3), Mean (SD) ([4]; Day 14, Day 0: 14.6 (5.7)): 15.1 (3.7); RAVLT, Mean (SD) ([4]; Day 14, Day 0: 17.3 (3.9)): 18.7 (3.1); WMS-R (Digit Span), Mean (SD) ([4]; Day 14, Day 0: 17.9 (3.3)): 17.9 (3.3); CFT, Mean (SD) ([4]; Day 14, Day 0: 18.4 (5.5)): 19.7 (2.4); DSST, Mean (SD) ([4]; Day 14, Day 0: 78.3 (11.0)): 80 (9.6); CHI3L1 (YKL-40) in CSF vs placebo [5, 6]: significantly decreased; CLU (clusterin) in CSF vs placebo [5, 6]: significantly decreased; SMOC1 in CSF vs placebo [5, 6]: significantly decreased; number of significantly abundant proteins in CSF, CT1812 vs placebo ([5]; N=18, p<0.05): 326
